For 22 molecules, IC50 and inhibition results are on record in publication PMC6968521, “Novel CDKs inhibitors for the treatment of solid tumour by simultaneously regulating the cell cycle and transcription control” (Journal of Enzyme Inhibition and Medicinal Chemistry, 2020).

Molecules are shown by their SMILES. Values joined by “and” are separate entries in the source; they are usually repeats but may differ in a detail not shown here. Equal entries are not always repeated.

One experiment concerns H460 cells. Put plainly: CCK-8 cytotoxicity assay, H460. The settings on record: Homo sapiens, NCI-H460; CCK-8, 72 h incubation, three independent experiments; read-out: In vitro cell growth inhibition IC50, H460. The experiment is classed as cell-based. The procedure:
(§1) All the human cancer cell lines were obtained from ATCC. Cells were cultured in RPMI-1640 (BioInd) medium according to the instructions from ATCC, with the medium containing 10% FBS (BioInd), 1% antibiotics (penicillin and streptomycin) at 37 °C in an atmosphere of 5% CO2.
(§2) Cytotoxicity assay were conducted as described previously using a Cell Counting Kit-8 (CCK-8) assay (#CK04, Dojindo, Kumamoto, Japan)[37].
For orientation: Tetrazolium assays rely on reduction of a dye to a coloured formazan, in cell work by metabolically active cells.

The next experiment deals with 4T1 breast cancer cells. Put plainly: CCK-8 cytotoxicity assay, 4T1. The settings on record: CCK-8, 72 h incubation, three independent experiments; read-out: In vitro cell growth inhibition IC50, 4T1. The experiment is classed as cell-based. The procedure: as §1, §2
The subject of a further experiment is A549 cells. Put plainly: CCK-8 cytotoxicity assay, A549. The format is cell-based. The note with it: Homo sapiens, CCK-8, 72 h incubation, three independent experiments, read-out: In vitro cell growth inhibition IC50, A549. The procedure:
as §1, §2

Another experiment has as its target T1, CDK9 (Homo sapiens, UniProt P50750).
T1 construct: purchased Eurofins (KinaseProfiler service)
As to the kind of experiment: Kinase inhibition assay (KinaseProfiler, Eurofins), CDK9. The note with it: for IC50: ATP at Km, mean of two independent experiments. The experiment is classed as biochemical. Here is the method:
(§3) Kinase inhibition profiles were determined using KinaseProfiler services provided by Eurofins, and ATP concentrations used the Km of corresponding kinases.

The test system of a further experiment is MCF7 cells. Put plainly: CCK-8 cytotoxicity assay, MCF7. The format is cell-based. The note with it: Homo sapiens, CCK-8, 72 h incubation, three independent experiments, read-out: In vitro cell growth inhibition IC50, MCF7. The procedure: as §1, §2
In another experiment the target is T2, CDK4 (Homo sapiens, UniProt P11802).
T2 construct: purchased Eurofins (KinaseProfiler service)
T2 sequence (P11802 whole entry): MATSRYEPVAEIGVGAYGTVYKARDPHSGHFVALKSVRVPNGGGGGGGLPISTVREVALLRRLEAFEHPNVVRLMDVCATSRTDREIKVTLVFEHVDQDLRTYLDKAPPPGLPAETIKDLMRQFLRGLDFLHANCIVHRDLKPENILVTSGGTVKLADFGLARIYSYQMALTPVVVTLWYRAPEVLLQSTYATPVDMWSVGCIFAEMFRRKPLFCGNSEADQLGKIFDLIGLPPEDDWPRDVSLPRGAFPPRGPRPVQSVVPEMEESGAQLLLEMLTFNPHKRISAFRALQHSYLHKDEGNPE
T2 sequence (P30281 whole entry partner): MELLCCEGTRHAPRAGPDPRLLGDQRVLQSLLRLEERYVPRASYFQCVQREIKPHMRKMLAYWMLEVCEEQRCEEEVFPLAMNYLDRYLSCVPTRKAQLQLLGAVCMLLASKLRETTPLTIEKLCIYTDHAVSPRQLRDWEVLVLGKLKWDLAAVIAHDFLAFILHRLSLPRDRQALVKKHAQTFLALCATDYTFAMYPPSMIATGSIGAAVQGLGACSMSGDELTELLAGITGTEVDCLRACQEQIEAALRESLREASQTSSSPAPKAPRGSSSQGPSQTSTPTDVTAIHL
As to the kind of experiment: Kinase inhibition assay (KinaseProfiler, Eurofins), CDK4. The format is biochemical. The settings on record: for IC50: ATP at Km, mean of two independent experiments. The procedure: as §3

The test system of a further experiment is T-47D cells. Put plainly: CCK-8 cytotoxicity assay, T-47D. The experiment is classed as cell-based. The note with it: Homo sapiens, T47D; CCK-8, 72 h incubation, three independent experiments; read-out: In vitro cell growth inhibition IC50, T-47D. The procedure: as §1, §2
The target of a further experiment is T3, CDK6 (Homo sapiens, UniProt Q00534).
T3 construct: purchased Eurofins (KinaseProfiler service)
T3 sequence (Q00534 whole entry): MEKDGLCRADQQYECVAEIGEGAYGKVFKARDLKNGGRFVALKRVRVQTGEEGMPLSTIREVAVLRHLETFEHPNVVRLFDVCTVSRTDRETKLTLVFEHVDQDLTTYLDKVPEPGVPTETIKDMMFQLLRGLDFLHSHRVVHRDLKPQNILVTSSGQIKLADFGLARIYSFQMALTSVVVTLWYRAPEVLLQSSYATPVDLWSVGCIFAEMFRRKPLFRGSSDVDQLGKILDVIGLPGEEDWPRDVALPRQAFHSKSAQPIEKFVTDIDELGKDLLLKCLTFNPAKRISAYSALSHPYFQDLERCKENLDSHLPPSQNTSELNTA
T3 sequence (P30281 whole entry partner): as the sequence (P30281 whole entry partner) above
Put plainly: Kinase inhibition assay (KinaseProfiler, Eurofins), CDK6. The experiment is classed as biochemical. The note with it: for IC50: ATP at Km, mean of two independent experiments. The procedure: as §3

The test system of the next experiment is H1299 cells. Put plainly: CCK-8 cytotoxicity assay, H1299. The format is cell-based. The note with it: Homo sapiens, NCI-H1299; CCK-8, 72 h incubation, three independent experiments; read-out: In vitro cell growth inhibition IC50, H1299. The procedure: as §1, §2

T1 sequence (P50750 whole entry): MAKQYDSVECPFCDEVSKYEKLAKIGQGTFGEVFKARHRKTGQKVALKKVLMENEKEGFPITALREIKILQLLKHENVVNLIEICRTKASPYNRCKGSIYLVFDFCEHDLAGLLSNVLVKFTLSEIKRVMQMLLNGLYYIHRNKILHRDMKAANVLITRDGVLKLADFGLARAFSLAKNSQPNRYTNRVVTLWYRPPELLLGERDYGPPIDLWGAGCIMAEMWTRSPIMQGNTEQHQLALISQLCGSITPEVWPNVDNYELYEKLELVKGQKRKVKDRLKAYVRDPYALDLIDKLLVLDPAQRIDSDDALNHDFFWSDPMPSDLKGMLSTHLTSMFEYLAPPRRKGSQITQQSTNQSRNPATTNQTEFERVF
T1 sequence (O60563 whole entry partner): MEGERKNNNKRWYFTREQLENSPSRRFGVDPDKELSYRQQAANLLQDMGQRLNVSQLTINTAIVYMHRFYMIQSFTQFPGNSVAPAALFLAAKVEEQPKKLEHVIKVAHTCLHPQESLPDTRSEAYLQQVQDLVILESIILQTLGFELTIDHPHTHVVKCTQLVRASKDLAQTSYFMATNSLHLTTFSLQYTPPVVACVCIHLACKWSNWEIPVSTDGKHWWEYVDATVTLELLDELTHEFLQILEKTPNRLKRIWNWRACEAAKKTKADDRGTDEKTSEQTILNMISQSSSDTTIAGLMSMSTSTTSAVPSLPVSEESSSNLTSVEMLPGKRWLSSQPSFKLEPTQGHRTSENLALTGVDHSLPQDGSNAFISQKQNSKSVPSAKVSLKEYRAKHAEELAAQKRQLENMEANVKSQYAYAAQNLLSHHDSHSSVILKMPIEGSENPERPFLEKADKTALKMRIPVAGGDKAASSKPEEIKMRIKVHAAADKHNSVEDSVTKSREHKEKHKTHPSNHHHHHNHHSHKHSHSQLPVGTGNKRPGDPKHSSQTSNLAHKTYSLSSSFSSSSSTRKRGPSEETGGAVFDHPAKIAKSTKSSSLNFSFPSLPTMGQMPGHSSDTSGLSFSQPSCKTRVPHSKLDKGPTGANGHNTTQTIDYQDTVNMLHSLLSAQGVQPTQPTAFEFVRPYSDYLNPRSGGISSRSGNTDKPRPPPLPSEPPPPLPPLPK

In the case of `CN(C)C(=O)c1cc2cnc(Nc3ccc([S+]([O-])CCCCCN=C=S)cc3)nc2n1C1CCCC1` (stereo not drawn) [X7], the IC50 is 0.92 ± 0.15 µM with H460 cells; 0.41 ± 0.1 µM with 4T1 breast cancer cells; 0.67 ± 0.03 µM in the experiment on A549 cells; 0.026 µM and 0.007 µM against CDK9; 0.23 ± 0.04 µM with MCF7 cells; 0.007 µM and 0.026 µM at CDK4. Besides, the IC50 with T-47D cells is 0.1 ± 0.02 µM; with H1299 cells, 1.15 ± 0.1 µM. Further, the results for the inhibition at 1 µM on CDK9, against CDK4 and at CDK6 were 99%, 99% and 87 ± 1.6%, respectively.

As to `CN(C)C(=O)c1cc2cnc(Nc3ccc(CSCCCN=C=S)cc3)nc2n1C1CCCC1` [X14], the inhibition at 1 µM against CDK9 worked out at 97 ± 0.4%; against CDK4 it was 95%; against CDK6, 86 ± 1.2%. For the same molecule, the IC50 at CDK9 was found to be 0.016 ± 0.0028 µM; at CDK4, 0.079 ± 0.0013 µM.

On to `CN(C)C(=O)c1cc2cnc(Nc3ccc(S(=O)(=O)CCCN=C=S)cc3)nc2n1C1CCCC1` [X9], for which the inhibition at 1 µM is 97% at CDK9, 94 ± 1.6% on CDK4 and 92 ± 1.2% against CDK6. The figures for the IC50 at CDK9, at CDK4 and against CDK6 were 0.004 ± 0.0004 µM, 0.043 ± 0.0026 µM and 0.101 ± 0.0047 µM, respectively.

With `CN(C)C(=O)c1cc2cnc(Nc3ccc(CSCCCCCCN=C=S)cc3)nc2n1C1CCCC1` [X17], the inhibition at 1 µM at CDK9 is 94 ± 1.6%; against CDK4, 61 ± 2.1%; against CDK6, 52 ± 0.4%. This molecule returned an IC50 at CDK9 of 0.055 ± 0.0022 µM.

As to `CN(C)C(=O)c1cc2cnc(Nc3ccc([S+]([O-])CCCCCN=C=S)cc3C(F)(F)F)nc2n1C1CCCC1` (stereo not drawn) [X5], the inhibition at 1 µM against CDK9 worked out at 97 ± 0.4%; against CDK4 it was 91 ± 0.8%; at CDK6, 48 ± 1.2%. For the same molecule, the values for the IC50 at CDK9 and against CDK4 were 0.034 ± 0.0053 µM and 0.331 ± 0.0333 µM, respectively.

Consider `CN(C)C(=O)c1cc2cnc(Nc3ccc(S(=O)(=O)CCCCCCCN=C=S)cc3)nc2n1C1CCCC1` [X13], for which the inhibition at 1 µM against CDK9 stood at 96 ± 0.4%; at CDK4 it was 74%; at CDK6, 68 ± 0.4%. The molecule further displayed an IC50 against CDK9 of 0.024 ± 0.0031 µM.

`CN(C)C(=O)c1cc2cnc(Nc3ccc(CS(=O)(=O)CCCN=C=S)cc3)nc2n1C1CCCC1` [X19]: the IC50 with H460 cells was 1.45 ± 0.1 µM; with 4T1 breast cancer cells it was 0.69 ± 0.14 µM; in the experiment on A549 cells, 1.46 ± 0.28 µM; against CDK9, 0.006 ± 0.0004 µM; in the experiment with MCF7 cells, 0.16 ± 0.06 µM; at CDK4, 0.017 ± 0.0007 µM. Moreover, the IC50 in the experiment on T-47D cells worked out at 0.72 ± 0.03 µM; at CDK6, 0.055 ± 0.0016 µM; with H1299 cells, 0.6 ± 0.04 µM. The values for the inhibition at 1 µM against CDK9, against CDK4 and against CDK6 were 98 ± 0.4%, 98% and 94 ± 0.8%, respectively.

On to `CN(C)C(=O)c1cc2cnc(Nc3ccc(SCCCCCN=C=S)cc3C(F)(F)F)nc2n1C1CCCC1` [X4], for which the inhibition at 1 µM against CDK9 is 41 ± 0.8%; against CDK4, 9 ± 1.6%; against CDK6, 8 ± 3.3%.

`CN(C)C(=O)c1cc2cnc(Nc3ccc(SCCCN=C=S)cc3)nc2n1C1CCCC1` [X8]: the IC50 in the experiment on H460 cells was determined as 3.22 ± 0.22 µM; with 4T1 breast cancer cells, 1.46 ± 0.34 µM; in the experiment on A549 cells, 3.07 ± 0.11 µM; at CDK9, 0.016 µM; in the experiment with MCF7 cells, 1.33 ± 0.15 µM; in the experiment on T-47D cells it was 0.41 ± 0.1 µM. For the same molecule, the half-maximal inhibitory concentration (IC50) with H1299 cells amounted to 3.79 ± 0.07 µM. Besides, the values for the inhibition at 1 µM against CDK9, against CDK4 and at CDK6 were 97 ± 0.4%, 70 ± 2.4% and 64 ± 0.8%, respectively.

Take `CN(C)C(=O)c1cc2cnc(Nc3ccc(S(=O)(=O)CCCCCN=C=S)cc3C(F)(F)F)nc2n1C1CCCC1` [X6]: the values for the inhibition at 1 µM against CDK9, on CDK4 and against CDK6 were 75 ± 0.4%, 35 ± 2.4% and 14 ± 1.2%, respectively.

On to `CN(C)C(=O)c1cc2cnc(Nc3ccc(S(=O)(=O)CCCCCN=C=S)cc3)nc2n1C1CCCC1` [X11], for which the inhibition at 1 µM against CDK9 came to 98 ± 0.4%; against CDK4, 89 ± 0.4%; against CDK6, 82 ± 0.8%. Moreover, the IC50 at CDK9 was 0.008 ± 0.0008 µM.

As to `COc1cc(SCCCCCN=C=S)ccc1Nc1ncc2cc(C(=O)N(C)C)n(C3CCCC3)c2n1` [X3], the values for the inhibition at 1 µM at CDK9, against CDK4 and against CDK6 were 33 ± 2.5%, 8 ± 2.1% and 5 ± 0.8%, respectively.

With `CN(C)C(=O)c1cc2cnc(Nc3ccc(CSCCCCN=C=S)cc3)nc2n1C1CCCC1` [X15], the values for the inhibition at 1 µM against CDK9, against CDK4 and on CDK6 were 96%, 83 ± 0.8% and 76 ± 0.8%, respectively. For the same molecule, the midpoint of inhibition against CDK9, the IC50, lay at 0.029 ± 0.0014 µM.

For `CN(C)C(=O)c1cc2cnc(Nc3ccc(CS(=O)(=O)CCCCN=C=S)cc3)nc2n1C1CCCC1` [X20], the IC50 in the experiment with H460 cells was 1.5 ± 0.39 µM; with 4T1 breast cancer cells, 0.26 ± 0.19 µM; in the experiment on A549 cells, 0.38 ± 0.02 µM; on CDK9, 0.007 ± 0.001 µM; with MCF7 cells, 0.12 ± 0.07 µM; on CDK4 it was 0.021 ± 0.0014 µM. For the same molecule, the IC50 in the experiment with T-47D cells came out at 0.12 ± 0.01 µM; at CDK6, 0.042 ± 0.0054 µM; in the experiment on H1299 cells, 0.6 ± 0.24 µM. The inhibition at 1 µM against CDK9 was found to be 98 ± 0.4%; at CDK4 it was 99 ± 0.4%; against CDK6, 94 ± 0.4%.

For the molecule `CN(C)C(=O)c1cc2cnc(Nc3ccc(CS(=O)(=O)CCCCCCCN=C=S)cc3)nc2n1C1CCCC1` [X23], the inhibition at 1 µM on CDK9 turned out to be 97%; against CDK4, 95 ± 0.5%; at CDK6, 77 ± 1.6%. Besides, the figures for the IC50 against CDK9 and at CDK4 were 0.014 ± 0.0009 µM and 0.075 ± 0.01 µM, respectively.

In the case of `CN(C)C(=O)c1cc2cnc(Nc3ccc(CS(=O)(=O)CCCCCN=C=S)cc3)nc2n1C1CCCC1` [X21], the inhibition at 1 µM on CDK9 turned out to be 98%; against CDK4 it was 98 ± 0.4%; against CDK6 it was 93%. In addition, the IC50 came to 0.007 ± 0.0006 µM against CDK9, 0.024 ± 0.0009 µM against CDK4 and 0.078 ± 0.0134 µM against CDK6.

In the case of `CN(C)C(=O)c1cc2cnc(Nc3ccc(S(=O)(=O)CCCCCCN=C=S)cc3)nc2n1C1CCCC1` [X12], the IC50 worked out at 2.79 ± 0.32 µM in the experiment with H460 cells; 0.46 ± 0.07 µM in the experiment on 4T1 breast cancer cells; 1.57 ± 0.07 µM in the experiment with A549 cells; 0.013 ± 0.0018 µM against CDK9; 0.57 ± 0.24 µM in the experiment with MCF7 cells; 0.16 ± 0.02 µM in the experiment on T-47D cells. Moreover, the IC50 with H1299 cells is 1.31 ± 0.06 µM. For the same molecule, the inhibition at 1 µM against CDK9 amounted to 97 ± 0.4%; at CDK4 it was 83%; against CDK6, 75 ± 0.4%.

On to `Cc1cc(SCCCCCN=C=S)ccc1Nc1ncc2cc(C(=O)N(C)C)n(C3CCCC3)c2n1` [X2], for which the inhibition at 1 µM stood at 80% on CDK9, 29 ± 2.1% on CDK4 and 17 ± 1.2% at CDK6.

As for `CN(C)C(=O)c1cc2cnc(Nc3ccc(SCCCCCN=C=S)cc3)nc2n1C1CCCC1` [X1], the inhibition at 1 µM at CDK9 was found to be 76%; on CDK4, 35 ± 0.5%; against CDK6, 63 ± 1.2%.

In the case of `CN(C)C(=O)c1cc2cnc(Nc3ccc(CSCCCCCCCN=C=S)cc3)nc2n1C1CCCC1` [X18], the inhibition at 1 µM against CDK9 came to 95 ± 0.4%; against CDK4 it was 82 ± 1.2%; against CDK6, 52 ± 0.8%. For the same molecule, the IC50 on CDK9 was found to be 0.042 ± 0.0016 µM.

In the case of `CN(C)C(=O)c1cc2cnc(Nc3ccc(CSCCCCCN=C=S)cc3)nc2n1C1CCCC1` [X16], the inhibition at 1 µM against CDK9 turned out to be 94 ± 0.4%; on CDK4, 71 ± 0.8%; at CDK6, 73%. This molecule also displayed an IC50 against CDK9 of 0.034 ± 0.0014 µM.

For `CN(C)C(=O)c1cc2cnc(Nc3ccc(S(=O)(=O)CCCCN=C=S)cc3)nc2n1C1CCCC1` [X10], the inhibition at 1 µM against CDK9 amounted to 98 ± 0.4%; at CDK4, 90 ± 0.8%; on CDK6, 88 ± 0.8%. Also, the IC50 amounted to 0.007 ± 0.0008 µM on CDK9 and 0.09 ± 0.0105 µM on CDK4.

One may read the IC50 as the concentration needed to halve the response being measured. In general, inhibition refers to the drop in the measured response relative to a control, in per cent.
